Laboratory results from patent US5582986A, “Antisense oligonucleotide inhibition of the ras gene” (Isis Pharmaceuticals, Inc., priority 1994, dated 1996).

How the values were obtained:
[1] = test system: normal (wild-type) H-ras-luciferase reporter gene in HeLa cells; assay: ras-luciferase reporter gene expression, normal (wild-type) form, transient transfection; format: cell-based, human; settings: dose-response, luciferase activity as % of untreated transfected cells, read-out: IC50, inhibition of ras-luciferase activity, normal form
[2] = test system: mutant (activated, codon-12) H-ras-luciferase reporter gene in HeLa cells; assay: ras-luciferase reporter gene expression, mutant (codon-12, activated) form, transient transfection; format: cell-based, human

2570: phosphorothioate 17-mer CCA-CAC-CGA-CGG-CGC-CC, targeted to the codon-12 point mutation of activated H-ras RNA (antisense CCACACCGACGGCGCCC; all phosphorothioate, sugars by position and methylation of C not given here) [Oligo 2570]
IC50 [1]: ~250 nM
selectivity toward the mutant form of ras-luciferase as compared to the normal form ([2]; at low concentrations, dose-response (FIG. 2)): approximately threefold
IC50 ([2]; dose-response, HeLa cells, luciferase activity as % of untreated transfected cells, read-out: IC50, inhibition of ras-luciferase activity, mutant form): ~100 nM
inhibition of mutant ras-luciferase relative to wild-type ([2]; single dose 100 nM, HeLa cells, cationic lipid (FIG. 6)): four-fold
selectivity toward the mutated form of ras-luciferase as compared to the normal form (in words) ([2]; single dose 0.5 μM (FIG. 3, FIG. 4)): displayed selectivity toward the mutated form
